These results are taken from publication PMC5995905, “Confirmation of high-throughput screening data and novel mechanistic insights into VDR-xenobiotic interactions by orthogonal assays” (Scientific Reports, 2018).

Usually AC50 stands for the midpoint of the concentration-response curve, whichever way the signal moves.

Several values for one entry are separate records, joined by “and”; a condition that tells them apart may be missing. Identical values can stand only once. Entries after “also recorded” stand apart in the source; their conditions may differ. Like-named read-outs stand apart in the source and are kept apart here.

Series [1] deals with VDR:SRC-1 (Homo sapiens, UniProt P11473). The series is described as follows: Mammalian 2-hybrid assay, recruitment of coactivator SRC-1 by VDR, Cos7 cells.
The target of series [2] is T1, human VDR (Homo sapiens, UniProt P11473).
T1 sequence (P11473 1-427): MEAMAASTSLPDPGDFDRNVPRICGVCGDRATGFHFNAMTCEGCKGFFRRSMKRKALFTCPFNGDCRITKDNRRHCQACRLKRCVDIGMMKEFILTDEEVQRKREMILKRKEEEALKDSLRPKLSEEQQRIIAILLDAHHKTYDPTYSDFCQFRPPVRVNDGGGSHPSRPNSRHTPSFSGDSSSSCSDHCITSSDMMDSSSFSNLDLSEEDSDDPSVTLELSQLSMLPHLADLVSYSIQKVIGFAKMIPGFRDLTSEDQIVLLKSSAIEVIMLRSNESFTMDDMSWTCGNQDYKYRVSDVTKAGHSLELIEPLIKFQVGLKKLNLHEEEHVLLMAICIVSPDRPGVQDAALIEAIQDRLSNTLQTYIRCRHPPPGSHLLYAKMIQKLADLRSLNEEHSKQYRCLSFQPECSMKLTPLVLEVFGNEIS
The series is described as follows: Transient transactivation assay (CYP24-Luc), agonist mode, HEK293T cells.

Series [3] deals with T1, human VDR.
Series [4] deals with human VDR ligand-binding domain. Also on record: method as in PMID 21543282. Particulars: agonist mode, cited from earlier work; for AC50: Tox21 qHTS data set, * = range of values. In general terms: Quantitative high-throughput screening tests each substance at several concentrations.
Series [5] addresses T2, VDR:RXR, VDR:SRC-1 and VDR:NCoR interactions (Homo sapiens, UniProt P11473).
T2 sequence (P11473 1-427): T1 sequence (P11473 1-427)
The series can be described thus: Mammalian 2-hybrid assay, summary in words of VDR coregulator interactions. In kind it is cell-based.

In series [6] the target is T3, VDR:NCoR (Homo sapiens, UniProt P11473).
T3 sequence (P11473 1-427): T1 sequence (P11473 1-427)
The series is described as follows: Mammalian 2-hybrid assay, recruitment of corepressor NCoR by VDR, Cos7 cells.

Series [7] deals with human VDR ligand-binding domain. Also on record: method as in PMID 21543282. Particulars: read-out: Tox21 IC 50, cited from earlier work.
Series [8] concerns the target T4, VDR:RXRα (Homo sapiens, UniProt P11473).
T4 sequence (P11473 1-427): T1 sequence (P11473 1-427)
The series is described as follows: Mammalian 2-hybrid assay, recruitment of RXRα by VDR, Cos7 cells.

Series [9] deals with T1, human VDR. The series is described as follows: Transient transactivation assay (CYP24-Luc), antagonist mode with 3 nM 1,25D3, HEK293T cells. In kind it is cell-based.
Where [10] appears, read: agonists, -RXR (empty pSG5), percentage of vitamin D3, conc. in Fig 5: ergocalciferol 60, lithocholic acid 50, calcipotriol 0.05, ethylphenol compound 40, 9 aminoacridine 50, tamoxifen citrate 20 μM.
Setting [11] is: AC50 (μM), experimental AC50 as listed in Fig 4a, agonists.
[12] abbreviates: Derived AC50 (Transient transactivation assay), agonist mode, HEK293T cells, CYP24A1-Luc.
[13] abbreviates: agonists, orthogonal transient transactivation assay, HEK293T cells.
Setting [14] is: Derived AC50 (Transient transactivation assay).
[15] abbreviates: read-out: Derived IC 50 (Transient transactivation assay).
Where [16] appears, read: top asymptote of Hill or Gain-Loss model, maximum response.
The mark [17] stands for this setting: read-out: Derived AC50 (Transient transactivation assay).

For the compound `Cc1cc(Cc2cc(C)cc(C(C)(C)C)c2O)c(O)c(C(C)(C)C)c1` [2,2′-methylenebis(6-tert-butyl-4-methylphenol)], the “% Induction, pMSRC-1NR + EpSG5” value in series [1] (setting [10]) came to 8.2%. The AC50 in [2] (setting [11]) is 4.62 µM; in series [2] (setting [12]), 9.32 µM; in series [4], 32.1 µM. Moreover, the outcome in series [2] (setting [13]) was Active. Further, the “Derived Efficacy (fold induction)” value in [3] was determined as 29.470 fold induction.
As to `Cc1cccc2c1cc1ccc3cccc4ccc2c1c34` [7 methyl benzo (a) pyrene], the “pattern of VDR:coregulator interaction facilitated by the ligand” value (shortened to “pattern … by the ligand”) in series [5] is recorded as “Interaction between VDR:RXR only in the presence of co transfected SRC-1”. Moreover, the result in series [2] was Active. For the same compound, the values for the AC50 in [2] (setting [14]) and in [4] were 10.6 µM and 2.54 µM, respectively. Besides, the “Derived Efficacy (fold induction)” value in series [3] amounted to 19.1624 fold induction.
With `Cl.Nc1c2ccccc2nc2ccccc12` [9 Aminoacridine monohydrochloride], the “% Induction, pMSRC-1NR + EpSG5” value in series [1] (setting [10]) was found to be 14.4%. Besides, the values for the AC50 in [2] (setting [11]), in series [2] (setting [12]) and in [4] were 10.9 µM, 12.6 µM and 4.25 to 11.1 µM, respectively. Also, in series [2] (setting [13]), the result was Active. The “Derived Efficacy (fold induction)” value in series [3] came out at 44.5165 fold induction. In [6] (agonists, -RXR, fold induction compared to DMSO, 9 aminoacridine at 50 μM in Fig 5), the “Fold Change (pMNCoR + EpSG5)” value came to 67.7 fold.
Take `c1csc(-c2ccc(-c3cccs3)s2)c1` [Alpha-Terthiophene]: the “pattern … by the ligand” value in [5] is listed as “Interaction between VDR:RXR only in the absence of full length SRC-1”. Moreover, the results for the AC50 in [2] (setting [12]) and in series [4] were 0.305 µM and 15.7 µM, respectively. Moreover, the result in series [2] (setting [13]) was Active. The “Derived Efficacy (fold induction)” value in series [3] is given as 19.9132 fold induction.
Regarding `[Cl][Cd][Cl]` [Cadmium chloride], the values for the IC50 in [7] and in series [9] (setting [15]) were 0.171 µM and 0.38 µM, respectively. Further, in series [8], the “% Induction (pMRXRα + EpSG5)” value was 175. Also, the “pattern of change of 1,25D3 induced VDR:coregulator interaction” value in series [5] is “enhanced recruitment of VDR:RXR and VDR:SRC-1 in both the presence and absence of co-expressed coregulators”. Besides, in series [9], the result was Active. Also, the “Derived Efficacy (fold inhibition)” value in series [9] is listed as 44.5165 fold inhibition. Moreover, the “Fold Change (pMNCoR + EpSG5)” value in series [6] stood at 1.1.
As to `CC(C)C[C@H](NC(=O)[C@H](CCc1ccccc1)NC(=O)CN1CCOCC1)C(=O)N[C@@H](Cc1ccccc1)C(=O)N[C@@H](CC(C)C)C(=O)[C@@]1(C)CO1` [Carfizomib, reference compound], the IC50 in series [7] (antagonist mode, Tox21 qHTS data set) was 0.748 µM; in series [9] (inhibition of 3 nM 1,25D3-induced response, HEK293T cells, unit given in Fig 3 legend, read-out: Derived IC 50 (Transient transactivation assay)), 0.53 µM and 0.538 µM. For the same compound, the “% Induction (pMSRC-1NR + RXRα)” value in series [1] (antagonists with 1,25D3, +RXR, percentage of vitamin D3, conc. in Fig 6: Cd chloride 12, dibutyltin dichloride 1, K dicyanoaurate 6, proscillaridin, aristolochic acid, carfizomib 12 μM) is recorded as 296%. The “% Induction (pMRXRα + EpSG5)” value in [8] (antagonists with 1,25D3, -SRC-1, percentage of vitamin D3, conc. in Fig 6: phenylarsine oxide 0.37, dibutyltin dichloride 1, K dicyanoaurate 6, aristolochic acid, carfizomib 12, menadiol 3 μM) was determined as 1908.1%. The Activity entry in series [2] (setting [13]) is “very weak agonist activity”; in series [9] (antagonists, transient transactivation assay in the presence of 3 nM 1,25D3), “Active”; in series [9] (antagonists, transient transactivation assay in the presence of 3 nM 1,25D3, listed as carfizomib), “moderate to marked synergistic activity”. Besides, in series [9] (setting [16]), the “Derived Efficacy (fold inhibition)” value came out at 80.6485 fold inhibition.
As for `O=S(=O)(O)c1ccccc1C=Cc1ccc(-c2ccc(C=Cc3ccccc3S(=O)(=O)O)cc2)cc1.[Na].[Na]` [Disodium 4,4′-bis(2-sulfostyryl) biphenyl], the “pattern … by the ligand” value in series [5] is reported as “did not facilitate VDR:RXR or VDR:SRC-1 interactions under any condition”. Also, the result in [2] was Active. In addition, the AC50 is 0.394 µM in [2] (setting [17]) and 18 µM in [4]. Moreover, the “Derived Efficacy (fold induction)” value in series [3] came out at 9.4578 fold induction.
As for `CN1CCC(Nc2ncc3ncnc(Nc4ccc(F)c(Cl)c4)c3n2)CC1.Cl.Cl` [Falnidamol dihydrochloride], in series [8], the “% Induction (pMRXRα + EpSG5)” value came to 5.3 and the “% Induction (pMRXRα + SRC- 1)” value was 3.7. For the same compound, in [5], the “pattern … by the ligand” value is “induced recruitment of RXR both in the presence and absence of co-transfected SRC-1”. Further, the Activity entry in series [2] was “consistently failed to exhibit any concentration response interactions; also recorded: Inactive”. The “Derived Efficacy (fold induction)” value in [3] was determined as 9.9267 fold induction. In series [4], the AC50 is 3.3 µM and the “activity in the Tox21 qHTS data set” value is “active”.
For the compound `O=C(NC(=O)c1c(F)cccc1F)Nc1ccc(OC(F)(F)C(F)OC(F)(F)F)c(Cl)c1` (stereo not shown) [Novaluron], the “% Induction, pMSRC-1NR + EpSG5” value in series [1] amounted to 0.9. For the same compound, the “pattern … by the ligand” value in series [5] was “Interaction between VDR:SRC-1 only in the absence of RXR”. The outcome in series [2] was Active. Also, the AC50 is 37.4 µM in series [2] (setting [17]) and 23.4 µM in series [4]. In series [3], the “Derived Efficacy (fold induction)” value was 16.3718 fold induction.
`C[C@@H]1O[C@@H](O[C@@H]2C=C3CC[C@@H]4[C@H](CC[C@]5(C)[C@@H](c6ccc(=O)oc6)CC[C@]45O)[C@@]3(C)CC2)[C@H](O)[C@H](O)[C@H]1O` [Proscillaridin, reference compound]: in series [7], the IC50 was 0.0433 µM. Moreover, the “pattern of change of 1,25D3 induced VDR:coregulator interaction” value in series [5] is listed as “selectively inhibited VDR:SRC-1 interactions only in the presence of full length wild type RXR; also recorded: enhanced the interaction between VDR:RXR only in the presence of co transfected SRC-1”. Moreover, in series [9], the outcome was Active and the “Derived Efficacy (fold inhibition)” value was 14.1669 fold inhibition. Further, the IC50 in [9] (Derived IC 50 (Transient transactivation assay)) was 1.89 µM and 1.9 µM. The “Fold Change (pMNCoR + EpSG5)” value in series [6] turned out to be 2.8.
`Nc1nc(N)c2nc(CNc3ccc(C(=O)N[C@@H](CCC(=O)O)C(=O)O)cc3)cnc2n1` [reference compound]: the “pattern … by the ligand” value in series [5] is reported as “did not facilitate VDR:RXR or VDR:SRC-1 interactions under any condition”. Further, the AC50 in [2] (setting [14]) was 33.7 µM; in [4] it was 11.8 µM. In series [2] (setting [16]), the “Derived Efficacy (fold induction)” value is recorded as 16.3718 fold induction. Also, the result in [3] was Active.
Consider Cadmium acetate dihydrate, for which, in [7], the IC50 is 0.271 µM. Also, in [1], the “% Induction (pMSRC-1NR + RXRα)” value worked out at 46.7 and the “% Induction, pMSRC-1NR + EpSG5” value is 51.7. Moreover, the “% Induction (pMRXRα + SRC- 1)” value in [8] is 165.6. In addition, the “pattern of change of 1,25D3 induced VDR:coregulator interaction” value in series [5] is recorded as “enhanced the interaction between VDR:RXR only in the presence of co transfected SRC-1”. In addition, in series [9], the outcome was Active and the “Derived Efficacy (fold inhibition)” value was found to be 20.5478 fold inhibition.
As to Cadmium reference solution, in series [1], the “% Induction (pMSRC-1NR + RXRα)” value turned out to be 0.9 and the “% Induction, pMSRC-1NR + EpSG5” value amounted to 1.3. Besides, in series [8], the “% Induction (pMRXRα + EpSG5)” value stood at 23.7 and the “% Induction (pMRXRα + SRC- 1)” value amounted to 16. In addition, in series [9], the outcome was Active and the “Derived Efficacy (fold inhibition)” value is 76.1807 fold inhibition. The IC50 in [9] (setting [15]) came to 0.198 µM. In addition, the “Fold Change (pMNCoR + EpSG5)” value in series [6] is reported as 0.7.
